Laboratory results: patent EP4596574A1, “GLP-1/GCG/GIP TRIPLE-RECEPTOR AGONIST AND USE THEREOF” (Sunshine Lake Pharma Co., Ltd., priority 2022, dated 2024)
Starred links: 1 amine or outer side, 2 acyl side, 3 side chain; linkers in the order of their positions; H or OH if unused. Non-standard residues stand in square brackets, D forms with d. Residues, ends and D or L forms follow the SMILES beside them. Groups on a side chain read outwards from the residue. *: point of attachment. C20 diacid = O=C(O)CCCCCCCCCCCCCCCCCCC(=O)*; αMePhe(2-F) = C[C@](N)(Cc1ccccc1F)C(=O)O; γGlu = O=C(O)[C@H](CCC(=O)[*:2])N[*:1]; AEEA = NCCOCCOCC(=O)O; Aib = CC(C)(N)C(=O)O

Assays:
Type in all cases: cell-based
GLP-1R = molecular target: T1, GLP-1R (Homo sapiens, UniProt P43220); test: In vitro cell activity, cAMP production in HEK293 cells expressing GLP-1R; settings: HEK293-GLP-1R cells, cAMP; read-out: GLP-1R (EC50)
T1 construct: expressed in transfected cells; host or cells: HEK293 (HEK293-GLP-1R)
Procedure: (§1) After they were completely thawed within 1.5 minutes, the cells were added dropwise into a 15 mL centrifuge tube containing 8 mL of warm culture medium in a clean bench. The tubes were centrifuged at 900 rpm for 5 minutes, the supernatant was discarded, and the cells were resuspended in 1 mL of complete culture medium (by pipetting 15 times). 20 µL of the suspension was immediately taken and mixed with an equal volume of trypan blue. 20 µL was taken to count the number of live cells, and the cells were diluted to 4×10^5 cells/mL with complete culture medium. • 4) The 384-well plate was divided into GLP-1R cell, GCGR cell and GIPR cell areas. The cell suspension was added to the wells of the corresponding area at 5 µL per well using a 12-channel variable-channel adjustable dispenser. […] Then, the diluted cAMP-d2 working solution and anti-cAMP-crytate working solution were mixed evenly in a ratio of 1:1, and 10 µL was added to each well of the sample group. The wells were covered with white lids and placed at room temperature in the dark for 1 hour or at 4 °C overnight. • 6) The fluorescence values at 665 nm and 620 nm were detected in a multifunctional microplate reader. In GraphPad Prism 6, the signal ratio and sample concentration were nonlinearly fitted using a four-parameter equation to obtain the EC50 value.

GCGR = molecular target: T2, GCGR (Homo sapiens, UniProt P47871); test: In vitro cell activity, cAMP production in HEK293 cells expressing GCGR; settings: HEK293-GCGR cells, cAMP; read-out: GCGR (EC50)
T2 construct: expressed in transfected cells; host or cells: HEK293 (HEK293-GCGR)
Procedure: as §1

GIPR = molecular target: T3, GIPR (Homo sapiens, UniProt P48546); test: In vitro cell activity, cAMP production in HEK293 cells expressing GIPR; settings: HEK293-GIPR cells, cAMP; read-out: GIPR (EC50)
T3 construct: expressed in transfected cells; host or cells: HEK293 (HEK293-GIPR)
T3 sequence (P48546 22-466): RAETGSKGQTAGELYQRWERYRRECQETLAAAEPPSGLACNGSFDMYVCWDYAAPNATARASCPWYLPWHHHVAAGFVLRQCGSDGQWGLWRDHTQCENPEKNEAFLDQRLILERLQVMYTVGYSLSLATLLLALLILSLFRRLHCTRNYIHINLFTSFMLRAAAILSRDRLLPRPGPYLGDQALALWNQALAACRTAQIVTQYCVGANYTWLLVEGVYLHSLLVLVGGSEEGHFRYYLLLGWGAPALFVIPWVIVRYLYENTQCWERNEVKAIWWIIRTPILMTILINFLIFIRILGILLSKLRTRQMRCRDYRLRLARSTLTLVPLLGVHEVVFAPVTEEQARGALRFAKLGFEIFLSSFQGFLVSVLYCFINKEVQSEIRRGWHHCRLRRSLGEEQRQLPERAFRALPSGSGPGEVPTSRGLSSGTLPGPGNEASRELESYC
Procedure: as §1, with “The wells were covered with white lids and placed at room temperature in the dark for 1 hour or at 4 °C overnight. • 6) The fluorescence values at 665 nm and 620 nm were detected in a multifunctional microplate reader.” left out

T2 sequence (P47871 26-477, species assumed): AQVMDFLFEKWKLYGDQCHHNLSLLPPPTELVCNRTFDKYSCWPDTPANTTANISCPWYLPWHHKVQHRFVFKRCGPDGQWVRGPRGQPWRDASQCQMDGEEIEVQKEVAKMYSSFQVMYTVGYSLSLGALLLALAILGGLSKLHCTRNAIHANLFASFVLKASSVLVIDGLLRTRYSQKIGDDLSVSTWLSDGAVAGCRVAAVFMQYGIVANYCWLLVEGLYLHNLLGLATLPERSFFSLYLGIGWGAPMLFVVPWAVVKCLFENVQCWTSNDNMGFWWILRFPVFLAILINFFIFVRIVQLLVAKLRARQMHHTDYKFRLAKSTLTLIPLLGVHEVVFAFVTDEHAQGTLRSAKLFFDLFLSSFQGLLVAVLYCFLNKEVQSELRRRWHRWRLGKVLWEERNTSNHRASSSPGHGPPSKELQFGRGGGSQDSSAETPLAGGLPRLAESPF
T1 sequence (P43220 24-463, species assumed): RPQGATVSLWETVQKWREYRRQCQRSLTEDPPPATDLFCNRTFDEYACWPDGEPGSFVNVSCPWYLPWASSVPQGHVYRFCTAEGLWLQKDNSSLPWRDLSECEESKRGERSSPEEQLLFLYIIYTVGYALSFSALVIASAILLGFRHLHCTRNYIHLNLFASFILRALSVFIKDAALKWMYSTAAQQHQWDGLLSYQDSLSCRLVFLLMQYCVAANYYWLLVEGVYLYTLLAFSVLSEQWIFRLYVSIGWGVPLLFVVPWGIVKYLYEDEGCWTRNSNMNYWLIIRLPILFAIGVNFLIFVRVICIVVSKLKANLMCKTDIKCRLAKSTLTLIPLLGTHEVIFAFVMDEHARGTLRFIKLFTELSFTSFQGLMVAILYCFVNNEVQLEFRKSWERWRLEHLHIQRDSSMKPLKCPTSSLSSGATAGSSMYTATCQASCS

## CC[C@H](C)[C@H](NC(=O)[C@H](CCC(=O)O)NC(=O)[C@H](CC(=O)O)NC(=O)[C@H](CC(C)C)NC(=O)[C@H](CC(C)C)NC(=O)[C@@H](NC(=O)[C@H](CO)NC(=O)[C@H](Cc1ccc(O)cc1)NC(=O)[C@H](CC(=O)O)NC(=O)[C@H](CO)NC(=O)[C@@H](NC(=O)[C@](C)(Cc1ccccc1F)NC(=O)[C@@H](NC(=O)CNC(=O)[C@H](CCC(N)=O)NC(=O)C(C)(C)NC(=O)[C@@H](N)Cc1c[nH]cn1)[C@@H](C)O)[C@@H](C)O)[C@@H](C)CC)C(=O)N[C@@H](C)C(=O)N[C@@H](CCC(N)=O)C(=O)N[C@@H](CCCCNC(=O)COCCOCCNC(=O)COCCOCCNC(=O)CC[C@H](NC(=O)CCCCCCCCCCCCCCCCCCC(=O)O)C(=O)O)C(=O)N[C@@H](CC(=O)O)C(=O)N[C@@H](Cc1ccccc1)C(=O)N[C@H](C(=O)N[C@@H](CCC(=O)O)C(=O)N[C@@H](Cc1c[nH]c2ccccc12)C(=O)N[C@@H](CC(C)C)C(=O)N[C@@H](CC(C)C)C(=O)N[C@@H](CCC(=O)O)C(=O)NCC(=O)NCC(=O)N1CCC[C@H]1C(=O)N[C@@H](CO)C(=O)N[C@@H](CO)C(=O)NCC(=O)N[C@@H](C)C(=O)N1CCC[C@H]1C(=O)N1CCC[C@H]1C(=O)N1CCC[C@H]1C(=O)N[C@@H](CO)C(=O)O)[C@@H](C)CC [HEC-PT67] (H-H[Aib]QGT[αMePhe(2-F)]TSDYSILLDEIAQK([AEEA-AEEA-γGlu-C20 diacid])DFIEWLLEGGPSSGAPPPS-OH)
GLP-1R
  EC50: 0.679 nM
GCGR
  EC50: 57 nM
GIPR
  EC50: 0.402 nM

## CC[C@H](C)[C@H](NC(=O)[C@H](Cc1ccccc1)NC(=O)[C@H](C)NC(=O)C(C)(C)NC(=O)[C@H](CCC(N)=O)NC(=O)[C@H](CCCNC(=N)N)NC(=O)[C@@H](NC(=O)[C@H](CCCCN)NC(=O)[C@H](CC(=O)O)NC(=O)[C@H](CCCCNC(=O)COCCOCCNC(=O)CC[C@H](NC(=O)CCCCCCCCCCCCCCCCC(=O)O)C(=O)O)NC(=O)[C@H](CC(C)C)NC(=O)[C@@H](NC(=O)[C@H](CO)NC(=O)[C@H](Cc1ccc(O)cc1)NC(=O)[C@H](CC(=O)O)NC(=O)[C@H](CO)NC(=O)[C@@H](NC(=O)[C@](C)(Cc1ccccc1F)NC(=O)[C@@H](NC(=O)CNC(=O)[C@H](CCC(N)=O)NC(=O)C(C)(C)NC(=O)[C@@H](N)Cc1ccc(O)cc1)[C@@H](C)O)[C@@H](C)O)[C@@H](C)CC)[C@@H](C)CC)C(=O)N[C@@H](CCC(=O)O)C(=O)N[C@@H](Cc1ccc(O)cc1)C(=O)N[C@@H](CC(C)C)C(=O)N[C@@H](CC(C)C)C(=O)N[C@@H](CCC(=O)O)C(=O)NCC(=O)NCC(=O)N1CCC[C@H]1C(=O)N[C@@H](CO)C(=O)N[C@@H](CO)C(=O)NCC(=O)N[C@@H](C)C(=O)N1CCC[C@H]1C(=O)N1CCC[C@H]1C(=O)N1CCC[C@H]1C(=O)N[C@@H](CO)C(N)=O [HEC-PT144]
GLP-1R
  EC50: 0.173 nM
GCGR
  EC50: 0.0366 nM
GIPR
  EC50: 0.0221 nM

## CC[C@H](C)[C@H](NC(=O)[C@H](CC(C)C)NC(=O)[C@H](Cc1c[nH]c2ccccc12)NC(=O)[C@H](CCC(=O)O)NC(=O)[C@@H](NC(=O)[C@H](Cc1ccccc1)NC(=O)[C@H](CCC(=O)O)NC(=O)[C@H](CCCCNC(=O)COCCOCCNC(=O)COCCOCCNC(=O)CC[C@H](NC(=O)CCCCCCCCCCCCCCCCCCC(=O)O)C(=O)O)NC(=O)[C@H](C)NC(=O)[C@H](C)NC(=O)[C@H](CCCNC(=N)N)NC(=O)[C@H](CCC(=O)O)NC(=O)[C@H](CC(=O)O)NC(=O)[C@H](CC(C)C)NC(=O)[C@H](CC(C)C)NC(=O)[C@@H](NC(=O)[C@H](CO)NC(=O)[C@H](Cc1ccc(O)cc1)NC(=O)[C@H](CC(=O)O)NC(=O)[C@H](CO)NC(=O)[C@@H](NC(=O)[C@](C)(Cc1ccccc1F)NC(=O)[C@@H](NC(=O)CNC(=O)[C@H](CCC(N)=O)NC(=O)C(C)(C)NC(=O)[C@@H](N)Cc1ccc(O)cc1)[C@@H](C)O)[C@@H](C)O)[C@@H](C)CC)[C@@H](C)CC)C(=O)N[C@@H](C)C(=O)NCC(=O)NCC(=O)N1CCC[C@H]1C(=O)N[C@@H](CO)C(=O)N[C@@H](CO)C(=O)NCC(=O)N[C@@H](C)C(=O)N1CCC[C@H]1C(=O)N1CCC[C@H]1C(=O)N1CCC[C@H]1C(=O)N[C@@H](CO)C(=O)O [HEC-PT71] (H-Y[Aib]QGT[αMePhe(2-F)]TSDYSILLDERAAK([AEEA-AEEA-γGlu-C20 diacid])EFIEWLIAGGPSSGAPPPS-OH)
GLP-1R
  EC50: 0.336 nM
GCGR
  EC50: 5.39 nM
GIPR
  EC50: 0.464 nM

## CC[C@H](C)[C@H](NC(=O)[C@H](Cc1ccccc1)NC(=O)[C@H](C)NC(=O)[C@H](CCCCN)NC(=O)[C@H](CCC(N)=O)NC(=O)[C@H](CCCCN)NC(=O)[C@H](CCCCNC(=O)COCCOCCNC(=O)CC[C@H](NC(=O)CCCCCCCCCCCCCCCCCCC(=O)O)C(=O)O)NC(=O)[C@H](CCC(=O)O)NC(=O)[C@H](CC(=O)O)NC(=O)[C@H](CC(C)C)NC(=O)[C@H](CC(C)C)NC(=O)[C@@H](NC(=O)[C@H](CO)NC(=O)[C@H](Cc1ccc(O)cc1)NC(=O)[C@H](CC(=O)O)NC(=O)[C@H](CO)NC(=O)[C@@H](NC(=O)[C@](C)(Cc1ccccc1F)NC(=O)[C@@H](NC(=O)CNC(=O)[C@H](CCC(N)=O)NC(=O)C(C)(C)NC(=O)[C@@H](N)Cc1ccc(O)cc1)[C@@H](C)O)[C@@H](C)O)[C@@H](C)CC)C(=O)N[C@@H](CCC(=O)O)C(=O)N[C@@H](Cc1ccc(O)cc1)C(=O)N[C@@H](CC(C)C)C(=O)N[C@@H](CC(C)C)C(=O)N[C@@H](C)C(=O)NCC(=O)NCC(=O)N1CCC[C@H]1C(=O)N[C@@H](CO)C(=O)N[C@@H](CO)C(=O)NCC(=O)N[C@@H](C)C(=O)N1CCC[C@H]1C(=O)N1CCC[C@H]1C(=O)N1CCC[C@H]1C(=O)N[C@@H](CO)C(N)=O [HEC-PT131]
GLP-1R
  EC50: 0.249 nM
GCGR
  EC50: 8.07 nM
GIPR
  EC50: 1.13 nM

## CC[C@H](C)[C@H](NC(=O)[C@H](Cc1ccccc1)NC(=O)[C@H](CC(=O)O)NC(=O)[C@H](CCCNC(=N)N)NC(=O)[C@H](CCC(N)=O)NC(=O)[C@H](C)NC(=O)[C@H](CCCCNC(=O)COCCOCCNC(=O)CC[C@H](NC(=O)CCCCCCCCCCCCCCCCCCC(=O)O)C(=O)O)NC(=O)[C@H](CCC(=O)O)NC(=O)[C@H](CC(=O)O)NC(=O)[C@H](CC(C)C)NC(=O)[C@H](CC(C)C)NC(=O)[C@@H](NC(=O)[C@H](CO)NC(=O)[C@H](Cc1ccc(O)cc1)NC(=O)[C@H](CC(=O)O)NC(=O)[C@H](CO)NC(=O)[C@@H](NC(=O)[C@](C)(Cc1ccccc1F)NC(=O)[C@@H](NC(=O)CNC(=O)[C@H](CCC(N)=O)NC(=O)C(C)(C)NC(=O)[C@@H](N)Cc1ccc(O)cc1)[C@@H](C)O)[C@@H](C)O)[C@@H](C)CC)C(=O)N[C@@H](CCC(=O)O)C(=O)N[C@@H](Cc1c[nH]c2ccccc12)C(=O)N[C@@H](CC(C)C)C(=O)N[C@@H](CC(C)C)C(=O)N[C@@H](CCC(=O)O)C(=O)NCC(=O)NCC(=O)N1CCC[C@H]1C(=O)N[C@@H](CO)C(=O)N[C@@H](CO)C(=O)NCC(=O)N[C@@H](C)C(=O)N1CCC[C@H]1C(=O)N1CCC[C@H]1C(=O)N1CCC[C@H]1C(=O)N[C@@H](CO)C(=O)O [HEC-PT64]
GLP-1R
  EC50: 0.6 nM
GCGR
  EC50: 3.57 nM
GIPR
  EC50: 0.248 nM
